From US20240115554A1, “METHODS FOR TREATING OBSTRUCTIVE HYPERTROPHIC CARDIOMYOPATHY” (Cytokinetics, Incorporated, priority 2022, published 2024)
“Also recorded” adds a separate entry of the source.

Key:
[1] = tested on: patients with symptomatic oHCM; experiment: Open-label extension: global longitudinal strain (GLS) by echocardiography; assay type: in vivo, human; conditions: baseline −13.9%±3.2
Method: GLS analysis was performed using a vendor-neutral analysis package (TOMTEC® Imaging Systems).

[2] = tested on: patients with symptomatic obstructive HCM (oHCM); experiment: Phase 2 trial: NYHA functional class; assay type: in vivo, human
Text: Secondary results from the clinical study included data from Cohort 3 (n=13). […] Overall, treatment duration for each patient in the study was 10 weeks with an echocardiogram conducted 2 weeks after the last dose. Efficacy endpoints included resting and provoked LVOT gradients, NYHA class, and NT-proBNP.

[3] = tested on: patients with symptomatic oHCM; experiment: Open-label extension: Kansas City Cardiomyopathy Questionnaire (KCCQ); assay type: in vivo, human
Method: Change in KCCQ scores from baseline, including OSS=overall summary score, CSS=clinical summary score, TSS=total symptom score, PLS=physical limitation score, SLS=social limitation score, QoL=quality of life, were determined. Patients were categorized with worsened (≤−5 points), unchanged (−5 to <5 points), small improvement (5 to <10 points), moderate to large improvement (10 to <20 points), and large to very large improvement (≥20 points) relative to baseline.

healthy adults = conditions: in vivo
Text: Study Overview and Ethics. The study used a randomized, placebo-controlled, single-ascending dose (SAD) and multiple-ascending dose (MAD) design (FIG. 2). […] Dose escalation was to be stopped when this range was achieved, or when a non-tolerated dose was identified, if earlier.
Single-ascending dose (SAD) cohorts. The SAD portion of the study used a randomized, double-blind, placebo-controlled, sequential, escalating-dose design, in which participants received single-ascending oral doses of the study drug. Seven cohorts were dosed in sequence (FIG. 2).
Recommendations regarding dose escalation in the SAD cohorts—and in the MAD cohorts described below—were made by the treating investigator (who was blinded to treatment group) and endorsed or not by the Dose Level Review Committee (DLRC), who were unblinded. […] Criteria for escalation included that no more than 2 participants in a dose group developed an LVEF <50% and no individual developed an LVEF <45%.
Multiple-ascending dose (MAD) cohorts. The MAD cohorts also used a randomized, double-blind, placebo-controlled, sequential design.
Safety and tolerability. Safety was assessed by the incidence of adverse events (AEs) and by incidence of reduced LVEF. Treatment-emergent AEs (TEAE) were defined as AEs that began or increased after study drug administration. All AEs were coded using the Medical Dictionary for Regulatory Activities version 21.1 and graded using the National Cancer Institute Common Terminology Criteria for AEs (version 4.03) 5-point severity scale. Each AE was judged as either related or unrelated to the study drug by the treating investigator. Clinical laboratory tests were obtained at regular intervals in all cohorts.
For safety monitoring, participants in all cohorts had periodic echocardiograms, which were assessed by a cardiologist. In the SAD and MAD cohorts, echocardiograms were also reviewed by an echocardiography core laboratory for PD assessments, as described below. In addition, participants in all cohorts were monitored with continuous 12-lead ECG recording using Holter monitors. For safety monitoring, a single 12-lead ECG was extracted at screening, pre-dose, and periodically throughout follow-up, and interpreted by the investigator. In the SAD, MAD, and CYP2D6-PM cohorts, cardiodynamic ECGs (triplicate 10-second, 12-lead ECG recordings) were obtained prior to the corresponding PK blood and ECG intervals quantitated by qualified readers.

[4] = tested on: patients with symptomatic obstructive HCM (oHCM); experiment: Phase 2 trial: safety and tolerability
Text: Seventeen investigative sites in North America and Europe screened for patients to enroll in Cohorts 1 and 2.
The first two cohorts (Cohort 1 and Cohort 2) excluded patients receiving disopyramide. Cohort 3 included patients receiving disopyramide. […] Overall, the treatment duration was 10 weeks with a 4-week follow-up period after the last dose.

[5] = pooled aficamten Cohorts 1 and 2
[6] = Cohort 1, 21 randomized 2:1 aficamten (5, 10, 15 mg once daily) or placebo, 10 weeks
[7] = Cohort 2, 20 randomized 2:1 aficamten (10, 20, 30 mg once daily) or placebo, 10 weeks
[8] = Cohort 3, 13 patients, aficamten (5, 10, 15 mg once daily) on top of disopyramide, 10 weeks
[9] = Total, Cohorts 1-3, 54 patients

Which results are given for CCc1nc(-c2ccc3c(c2)CC[C@H]3NC(=O)c2cnn(C)c2)no1 [aficamten, (R)—N-(5-(5-ethyl-1,2,4-oxadiazol-3-yl)-2,3-dihydro-1H-inden-1-yl)-1-methyl-1H-pyrazole-4-carboxamide]?
GLS ([1]; week 12 (n=27)): −14.3±3.0%; GLS ([1]; week 36-48 (n=27)): −14.9%; patients with improvement in NYHA class by one or more classes ([2]; Cohort 2): 64%; NYHA improvement in baseline class III patients ([2]; Cohort 3): all baseline NYHA class III patients improved by ≥1 class; patients with ≥1 NYHA class improvement ([2]; Cohort 3 (Eleven patients)): 85%; patients converted from class III to class II or I ([2]; Cohorts 1 and 2): 7 patients; patients who improved from NYHA class III to I [2, 5]: one; patients who improved from NYHA class III to II [2, 5]: 6 patients; patients with change in NYHA class of one or more classes ([2]; pooled aficamten Cohorts 1 and 2 (15 of 28)): 53%; participants with clinically-important improvement (5 points on the KCCQ Overall Summary Score) ([3]; Week 12): 72.7%; participants with very large clinical improvements in KCCQ ([3]; Week 12): 36.4%; participants with clinically-important improvement (5 points on the KCCQ Overall Summary Score) ([3]; Week 24): 72.0%; participants with very large clinical improvements in KCCQ ([3]; Week 24): 40.0%; improvement in KCCQ domain scores ([3]; up to 6 months): marked and sustained improvement in all KCCQ domain scores; participants with echocardiogram-related AEs of decreased ejection fraction <45% (healthy adults; human): 3 participants; overall safety and tolerability (healthy adults): safe and well tolerated; post-dose LVEF of 1 participant with LVEF <50% (healthy adults): 46.2%; serum chemistry, hematology, urinalysis findings (healthy adults): No clinically significant serum chemistry, hematology, or urinalysis findings; patients with LVEF <50% ([4]; Cohort 1): No patients; Patients with TEAEs leading to drug interruption or termination [4, 6]: 0 N; Patients with fatal TEAEs [4, 6]: 0 N; TEAE of LVEF <50% (Core Lab) [4, 6]: 0 N; patients with transient LVEF reduction to <50% requiring down titration ([4]; Cohort 2, 20 mg): one patient; Patients with TEAEs leading to drug interruption or termination [4, 7]: 0 N; Patients with TESAEs [4, 7]: 0 N; Patients with fatal TEAEs [4, 7]: 0 N; changes in QTc interval or vital signs ([4]; Cohort 3): no significant changes in QTc interval, or vital signs; moderate adverse events recorded ([4]; Cohort 3): six; patients with LVEF <50% ([4]; Cohort 3): No patients experienced LVEF <50%; serious adverse events, dose interruptions, discontinuations ([4]; Cohort 3): no serious adverse events attributed to treatment; also recorded: no dose interruptions, treatment discontinuations, or serious adverse events; Patients with TEAEs leading to drug interruption or termination [4, 8]: 0 N; Patients with TESAEs [4, 8]: 0 N; Patients with fatal TEAEs [4, 8]: 0 N; TEAE of LVEF <50% (Core Lab) [4, 8]: 0 N; adverse event of asymptomatic atrial fibrillation ([4]; Cohort 3, patient with known prior history): One; interruptions or discontinuations of treatment ([4]; Cohorts 1 and 2): no treatment interruptions; also recorded: No interruptions or discontinuations; new cases of atrial fibrillation ([4]; Cohorts 1 and 2): No new cases of atrial fibrillation; severity of adverse events ([4]; Cohorts 1 and 2): mild or moderate; treatment related serious adverse events ([4]; Cohorts 1 and 2): No serious adverse events were attributed to aficamten; also recorded: no treatment related serious adverse events; reversibility of LVEF effect after end of treatment ([4]; Phase 2 cohorts): returned towards baseline within two weeks after the end of treatment; also recorded: returned to baseline after the 2-week washout; Patients with TEAEs leading to drug interruption or termination [4, 9]: 0 N; Patients with fatal TEAEs [4, 9]: 0 N
